Assay results from US4046910A, “Dosage schedule” (The Upjohn Company, priority 1976, dated 1977).
Where a name gives a salt, the structure may show the parent alone.

Columns and labels:
[1] = man; cited from earlier work
[2] = test system: allergic and anaphylactic conditions; conditions: cited from earlier work
[3] = test system: rat passive cutaneous anaphylaxis; experiment: rat passive cutaneous anaphylaxis (PCA) test; type: in vivo, rat (female Sprague-Dawley); set-up: key to Spot Score: total detectable spots divided by number of animals
Text: The compound under review is first tested in the rat passive cutaneous anaphylaxis test system. This test is employed to determine if the compound does inhibit allergic manifestations. A DSCG biologue will inhibit allergic manifestations. The anti-allergy activity of DSCG biologues vary.
Female Sprague-Dawley 250 gm. rats are skin-sensitized with rat anti-ovalbumin homocytotropic antibody that is heat labile and has a passive cutaneous anaphylaxis titer of (1:128). After a 72-hour latency period, the animals are challenged i.v. with a 4 mg. ovalbumin (OA) + 5 mg. Evans blue dye. Thirty minutes later the extravascular bluing that results from antigen antibody combination at the skin site is read. Antibody dilutions are used such that in control animals a 4 mm spot in the lowest detectable spot, and 4 or 5 lower dilutions are used to give a range of antibody in each animal. Four to five animals are used for each variable in the experiment. Percent inhibition of the PCA assay is calculated by comparing the spot scores of DSCG treated rats with the spot scores of control rats. The spot score is the total number of detectable spots over the number of animals.
DSCG Priming Treatment: Passively sensitized rats are injected i.v. 2.0 hours before antigen challenge i.v. Two hours after an i.v. priming dose of 10 mg./kg. DSCG, the rats are challenged with antigen alone.
The time course of the effective life of DSCG in rats is shown in Table I. DSCG was administered i.p. and was followed by i.v. challenge with 4 mg. ovalbumin and 5 mg. of Evans Blue. Spot score was calculated 30 minutes later from a total of four animals for each time point.
The animals are rested 2 hours between primary i.v. DSCG injection and i.v. antigen challenge, including secondary DSCG dosing. In view of Table I, this time period is of such a length that the effect from the initial dose of DSCG is not a significant factor.
The effect of a time lag between priming doses and secondary doses with regard to the drug sparing effect and the responsiveness of the treated mammal to further treatment with DSCG or a DSCG biologue is shown in Table III. Rats were injected once daily with 10 mg./kg. DSCG for three days. Control rats were also injected with 1.0 ml. of saline at the same time. Twenty and 48 hours after the last dose of DSCG in the three dose series all rats were injected with DSCG. 4 mg. ovalbumin, and 5 mg. of Evans Blue dye.
Th sparing effect using a DSCG biologue, the tris(hydroxymethyl)aminomethane salt of 10-chloro-1,4,6,9-tetrahydro-4,6-dioxopyrido[3,2-g]quinoline-2,8-dicarboxylic acid, referred to as Compound 10 Cl in this Example, is shown in the rat PCA of Table IV. When using this compound in a priming situation, 2.0 mg./kg., 1.0 mg./kg., 0.025 mg./kg. and 0.01 mg./kg. give inhibitions of 93, 86, 44 and 0% respectively. The data of Table IV are obtained in the usual manner except that a 48 hour instead of a 72 hour sensitization period was used.

[4] = 10 mg./kg. i.p., 5 min before i.v. challenge
[5] = 10 mg./kg. i.p., 7 min before i.v. challenge
[6] = 10 mg./kg. i.p., 10 min before i.v. challenge
[7] = 10 mg./kg. i.p., 15 min before i.v. challenge
[8] = 10 mg./kg. i.p., 18 min before i.v. challenge
[9] = 10 mg./kg. i.p., 20 min before i.v. challenge
[10] = 10 mg./kg. i.p., 25 min before i.v. challenge
[11] = 10 mg./kg. i.p., 30 min before i.v. challenge
[12] = 10 mg./kg. i.p., 60 min before i.v. challenge

In the case of `O=C(O)c1cc(=O)c2c(OCC(O)COc3cccc4oc(C(=O)O)cc(=O)c34)cccc2o1` [DSCG, disodium salt of 1,3-bis(2-carboxychromon-5-yloxy)-2-hydroxypropane], the serum half life [1] is given as “approximately 2 minutes”, the “relief from allergic and anaphylactic conditions” value ([2]; administered in a prophylactic manner) is given as “provides relief from allergic and anaphylactic conditions” and the “inhibition of allergic manifestations on continuing administration” value ([2]; same dose level, significant number of individuals) is given as “lower levels of inhibition which may be clinically ineffective”. For the same compound, the “inhibition given as a priming dose” value ([3]; 0.1 mg. priming dose) was “does not provide any inhibition”, the “% Inhibition” value [3, 4] was 26% and the “Spot Score” value [3, 4] was 1.67. For the same compound, the “% Inhibition” value [3, 5] was 26%, the “Spot Score” value [3, 5] was 1.67 and the “% Inhibition” value [3, 6] was 73%. For the same compound, the “Spot Score” value [3, 6] was 0.66, the “% Inhibition” value [3, 7] was 51% and the “Spot Score” value [3, 7] was 1.00. The “% Inhibition” value [3, 8] was 44%, the “Spot Score” value [3, 8] was 1.25 and the “% Inhibition” value [3, 9] was 33%. For the same compound, the “Spot Score” value [3, 9] was 1.50, the “% Inhibition” value [3, 10] was 26% and the “Spot Score” value [3, 10] was 1.67. For the same compound, the “% Inhibition” value [3, 11] was 11%, the “Spot Score” value [3, 11] was 2.0 and the “% Inhibition” value [3, 12] was 11%. For the same compound, the “Spot Score” value [3, 12] was 2.0, the “persistence of inhibiting effect” value ([3]; 10 mg./kg. i.p., in 30 minutes) was “most of the inhibiting effect of DSCG has disappeared” and the “inhibitory effect in rat PCA after priming dose alone” value ([3]; 10 mg./kg. i.v. priming, antigen challenge i.v. 2 hours later) was “No inhibitory effects are observed”. The “inhibition given as a priming dose” value ([3]; 10 mg./kg. priming dose) was 79%, the “% Inhibition” value ([3]; 10 mg./kg., i.v. at challenge) was 100% and the “Spot Score” value ([3]; 10 mg./kg., i.v. at challenge) was 0. The “drug sparing effect from the priming dosage” value ([3]; 20 hours post priming) was “present at 20 hours post priming”, the “drug sparing effect from the priming dosage” value ([3]; 48 hours post priming) was “has disappeared at 48 hours post priming” and the “effect of high priming doses on high secondary doses” value ([3]; high doses in priming and secondary dose situation) was “inhibit the action of high doses of DSCG in the secondary dose situation”. The “Inhibition in Rat PCA” value ([3]; priming 0.1 mg./kg. i.v., secondary DSCG 0.1 mg./kg. with antigen 2 hours later) was 2%, the “Inhibition in Rat PCA” value ([3]; priming 0.1 mg./kg. i.v., secondary DSCG 1.0 mg./kg. with antigen 2 hours later) was 39% and the “Inhibition in Rat PCA” value ([3]; priming 0.1 mg./kg. i.v., secondary DSCG 10 mg./kg. with antigen 2 hours later) was 79%. For the same compound, the “Inhibition in Rat PCA” value ([3]; priming 1.0 mg./kg. i.v., secondary DSCG 0.1 mg./kg. with antigen 2 hours later) was 27%, the “Inhibition in Rat PCA” value ([3]; priming 1.0 mg./kg. i.v., secondary DSCG 1.0 mg./kg. with antigen 2 hours later) was 39% and the “Inhibition in Rat PCA” value ([3]; priming 1.0 mg./kg. i.v., secondary DSCG 10 mg./kg. with antigen 2 hours later) was 98%. The “Inhibition in Rat PCA” value ([3]; priming 10 mg./kg. i.v., secondary DSCG 0.1 mg./kg. with antigen 2 hours later) was 39%, the “Inhibition in Rat PCA” value ([3]; priming 10 mg./kg. i.v., secondary DSCG 1.0 mg./kg. with antigen 2 hours later) was 51% and the “Inhibition in Rat PCA” value ([3]; priming 10 mg./kg. i.v., secondary DSCG 10 mg./kg. with antigen 2 hours later, mean percent from 15 animals) was 51%. For the same compound, the “% Inhibition in the Rat PCA” value ([3]; saline i.v. 3 times, then DSCG dose 0.1) was 0%, the “% Inhibition in the Rat PCA” value ([3]; saline i.v. 3 times, then DSCG dose 1.0) was 11% and the “% Inhibition in the Rat PCA” value ([3]; saline i.v. 3 times, then DSCG dose 5.0) was 47%. The “% Inhibition in the Rat PCA” value ([3]; saline i.v. 3 times, then DSCG dose 10) was 82%, the “% Inhibition in the Rat PCA” value ([3]; secondary DSCG dose 0, 48 hours after last of three daily 10 mg./kg. DSCG) was 0% and the “% Inhibition in the Rat PCA” value ([3]; secondary DSCG dose 0.05, 20 hours after last of three daily 10 mg./kg. DSCG) was 47%. The “% Inhibition in the Rat PCA” value ([3]; secondary DSCG dose 0.05, 48 hours after last of three daily 10 mg./kg. DSCG) was 2%, the “% Inhibition in the Rat PCA” value ([3]; secondary DSCG dose 0.1, 20 hours after last of three daily 10 mg./kg. DSCG) was 52% and the “% Inhibition in the Rat PCA” value ([3]; secondary DSCG dose 0.1, 48 hours after last of three daily 10 mg./kg. DSCG) was 0%. For the same compound, the “% Inhibition in the Rat PCA” value ([3]; secondary DSCG dose 1.0, 20 hours after last of three daily 10 mg./kg. DSCG) was 58%, the “% Inhibition in the Rat PCA” value ([3]; secondary DSCG dose 5.0, 20 hours after last of three daily 10 mg./kg. DSCG) was 20% and the “% Inhibition in the Rat PCA” value ([3]; secondary DSCG dose 5.0, 48 hours after last of three daily 10 mg./kg. DSCG) was 65%. The “% Inhibition in the Rat PCA” value ([3]; secondary DSCG dose 10, 20 hours after last of three daily 10 mg./kg. DSCG) was 20% and the “% Inhibition in the Rat PCA” value ([3]; secondary DSCG dose 10, 48 hours after last of three daily 10 mg./kg. DSCG) was 73%.
